From the supplement of paper PMC10307832

Assays:
Test in all cases: relative viability (nuclei count vs DMSO), 5 days (fraction); higher = more cells survive
[1] = system: NCI-H727
Summary of the method: (§1)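 A single step with final 0.05% Triton X-100, 1% formaldehyde and 1 ug/ml Hoechst fixed the cells and stained nuclei 5 days after treatment. Lung cancer cell lines in 1536-well plates had been treated by pin tool the day after seeding with one drug alone or a fixed anchor-drug dose plus five library-drug doses (not always all listed) in √10 steps, and nuclei were counted on 4× images. Relative viability is the ratio of nuclei in treated wells to nuclei in vehicle wells, taken as the median of duplicate plates.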

[2] = system: COR-L 105
Summary of the method: as §1

[3] = system: HOP-62
Summary of the method: as §1

[4] = system: NCI-H1355
Summary of the method: as §1

[5] = system: HCC-827
Summary of the method: as §1

[6] = system: NCI-H1755
Summary of the method: as §1

[7] = system: SW 1573
Summary of the method: as §1

[8] = system: HCC-366
Summary of the method: as §1

[9] = system: HARA
Summary of the method: as §1

[10] = system: NCI-H23
Summary of the method: as §1

[11] = system: NCI-H1975
Summary of the method: as §1

[12] = system: SK-LU-1
Summary of the method: as §1

[13] = system: NCI-H522
Summary of the method: as §1

[14] = system: NCI-H1437
Summary of the method: as §1

[15] = system: NCI-H1915
Summary of the method: as §1

[16] = system: LCLC-103H
Summary of the method: as §1

[17] = system: A-427
Summary of the method: as §1

[18] = system: NCI-H460
Summary of the method: as §1

[19] = system: EMC-BAC-2
Summary of the method: as §1

[20] = system: NCI-H1792
Summary of the method: as §1

[21] = system: NCI-H2009
Summary of the method: as §1

[22] = system: NCI-H1395
Summary of the method: as §1

[23] = system: CAL-12T
Summary of the method: as §1

C[C@@H]1CN(CC(=O)Nc2ccc3c(c2)Cc2cccc(-c4cc(=O)cc(N5CCOCC5)o4)c2S3)C[C@H](C)O1 + Nc1ncn([C@H]2C[C@H](O)[C@@H](CO)O2)c(=O)n1 [Decitabine] (partner 2 µM)
relative viability ([1]; first compound 0.04 µM): 1.14 | relative viability ([1]; first compound 0.1265 µM): 1 | relative viability ([1]; first compound 0.4 µM): 0.99 | relative viability ([1]; first compound 4 µM): 0.8 | relative viability ([2]; first compound 0.04 µM): 0.644 | relative viability ([2]; first compound 0.1265 µM): 0.661 | relative viability ([2]; first compound 0.4 µM): 0.723 | relative viability ([2]; first compound 4 µM): 0.654 | relative viability ([3]; first compound 0.04 µM): 0.229 | relative viability ([3]; first compound 0.1265 µM): 0.202 | relative viability ([3]; first compound 0.4 µM): 0.187 | relative viability ([3]; first compound 4 µM): 0.245 | relative viability ([4]; first compound 0.04 µM): 0.389 | relative viability ([4]; first compound 0.1265 µM): 0.338 | relative viability ([4]; first compound 0.4 µM): 0.363 | relative viability ([4]; first compound 4 µM): 0.375 | relative viability ([5]; first compound 0.04 µM): 0.355 | relative viability ([5]; first compound 0.1265 µM): 0.362 | relative viability ([5]; first compound 0.4 µM): 0.418 | relative viability ([5]; first compound 4 µM): 0.382 | relative viability ([6]; first compound 0.04 µM): 0.708 | relative viability ([6]; first compound 0.1265 µM): 0.737 | relative viability ([6]; first compound 0.4 µM): 0.77 | relative viability ([6]; first compound 4 µM): 0.796 | relative viability ([7]; first compound 0.04 µM): 0.572 | relative viability ([7]; first compound 0.1265 µM): 0.56 | relative viability ([7]; first compound 0.4 µM): 0.483 | relative viability ([7]; first compound 4 µM): 0.615 | relative viability ([8]; first compound 0.04 µM): 0.347 | relative viability ([8]; first compound 0.1265 µM): 0.348 | relative viability ([8]; first compound 0.4 µM): 0.326 | relative viability ([8]; first compound 4 µM): 0.326 | relative viability ([9]; first compound 0.04 µM): 0.594 | relative viability ([9]; first compound 0.1265 µM): 0.522 | relative viability ([9]; first compound 0.4 µM): 0.454 | relative viability ([9]; first compound 4 µM): 0.717 | relative viability ([10]; first compound 0.04 µM): 0.347 | relative viability ([10]; first compound 0.1265 µM): 0.266 | relative viability ([10]; first compound 0.4 µM): 0.296 | relative viability ([10]; first compound 4 µM): 0.334 | relative viability ([11]; first compound 0.04 µM): 0.412 | relative viability ([11]; first compound 0.1265 µM): 0.44 | relative viability ([11]; first compound 0.4 µM): 0.364 | relative viability ([11]; first compound 4 µM): 0.347 | relative viability ([12]; first compound 0.04 µM): 0.693 | relative viability ([12]; first compound 0.1265 µM): 0.719 | relative viability ([12]; first compound 0.4 µM): 0.646 | relative viability ([12]; first compound 4 µM): 0.59 | relative viability ([13]; first compound 0.04 µM): 0.663 | relative viability ([13]; first compound 0.1265 µM): 0.689 | relative viability ([13]; first compound 0.4 µM): 0.641 | relative viability ([13]; first compound 4 µM): 0.724 | relative viability ([14]; first compound 0.04 µM): 0.648 | relative viability ([14]; first compound 0.1265 µM): 0.591 | relative viability ([14]; first compound 0.4 µM): 0.625 | relative viability ([14]; first compound 4 µM): 0.608 | relative viability ([15]; first compound 0.04 µM): 0.259 | relative viability ([15]; first compound 0.1265 µM): 0.279 | relative viability ([15]; first compound 0.4 µM): 0.283 | relative viability ([15]; first compound 4 µM): 0.29 | relative viability ([16]; first compound 0.04 µM): 0.693 | relative viability ([16]; first compound 0.1265 µM): 0.695 | relative viability ([16]; first compound 0.4 µM): 0.697 | relative viability ([16]; first compound 4 µM): 0.737 | relative viability ([17]; first compound 0.04 µM): 0.533 | relative viability ([17]; first compound 0.1265 µM): 0.605 | relative viability ([17]; first compound 0.4 µM): 0.562 | relative viability ([17]; first compound 4 µM): 0.587 | relative viability ([18]; first compound 0.04 µM): 0.401 | relative viability ([18]; first compound 0.1265 µM): 0.466 | relative viability ([18]; first compound 0.4 µM): 0.379 | relative viability ([18]; first compound 4 µM): 0.335 | relative viability ([19]; first compound 0.04 µM): 0.887 | relative viability ([19]; first compound 0.1265 µM): 1.05 | relative viability ([19]; first compound 0.4 µM): 0.948 | relative viability ([19]; first compound 4 µM): 0.827 | relative viability ([20]; first compound 0.04 µM): 0.627 | relative viability ([20]; first compound 0.1265 µM): 0.51 | relative viability ([20]; first compound 0.4 µM): 0.542 | relative viability ([20]; first compound 4 µM): 0.441 | relative viability ([21]; first compound 0.04 µM): 0.31 | relative viability ([21]; first compound 0.1265 µM): 0.363 | relative viability ([21]; first compound 0.4 µM): 0.383 | relative viability ([21]; first compound 4 µM): 0.34 | relative viability ([22]; first compound 0.1265 µM): 0.763 | relative viability ([22]; first compound 0.4 µM): 0.653 | relative viability ([22]; first compound 4 µM): 0.752

CC(C)Oc1cc(Nc2nc(N[C@@H](C)c3ccc(F)cn3)ncc2Cl)n[nH]1 [AZ23] + NC(=O)Nc1cc(-c2cccc(F)c2)sc1C(=O)N[C@H]1CCCNC1 [AZD7762] (partner 0.2 µM)
relative viability ([1]; first compound 0.01 µM): 0.628 | relative viability ([1]; first compound 0.03162 µM): 0.802 | relative viability ([1]; first compound 0.3162 µM): 0.597 | relative viability ([3]; first compound 0.01 µM): 0.493 | relative viability ([3]; first compound 0.03162 µM): 0.804 | relative viability ([3]; first compound 0.3162 µM): 0.863 | relative viability ([4]; first compound 0.01 µM): 0.711 | relative viability ([4]; first compound 0.03162 µM): 0.808 | relative viability ([4]; first compound 0.3162 µM): 0.916 | relative viability ([5]; first compound 0.01 µM): 0.147 | relative viability ([5]; first compound 0.03162 µM): 0.223 | relative viability ([5]; first compound 0.3162 µM): 0.212 | relative viability ([6]; first compound 0.01 µM): 0.413 | relative viability ([6]; first compound 0.03162 µM): 0.471 | relative viability ([6]; first compound 0.3162 µM): 0.477 | relative viability ([8]; first compound 0.01 µM): 0.239 | relative viability ([8]; first compound 0.03162 µM): 0.423 | relative viability ([8]; first compound 0.3162 µM): 0.496 | relative viability ([23]; first compound 0.01 µM): 0.614 | relative viability ([23]; first compound 0.03162 µM): 0.689 | relative viability ([23]; first compound 0.3162 µM): 0.717 | relative viability ([9]; first compound 0.01 µM): 0.252 | relative viability ([9]; first compound 0.03162 µM): 0.485 | relative viability ([9]; first compound 0.3162 µM): 0.534 | relative viability ([10]; first compound 0.03162 µM): 0.204 | relative viability ([10]; first compound 0.3162 µM): 0.309 | relative viability ([11]; first compound 0.01 µM): 0.555 | relative viability ([11]; first compound 0.03162 µM): 0.799 | relative viability ([11]; first compound 0.3162 µM): 0.828 | relative viability ([13]; first compound 0.01 µM): 0.935 | relative viability ([13]; first compound 0.03162 µM): 0.95 | relative viability ([13]; first compound 0.3162 µM): 0.809 | relative viability ([14]; first compound 0.01 µM): 1.17 | relative viability ([14]; first compound 0.03162 µM): 1.18 | relative viability ([14]; first compound 0.3162 µM): 1.19 | relative viability ([15]; first compound 0.01 µM): 0.758 | relative viability ([15]; first compound 0.03162 µM): 0.737 | relative viability ([15]; first compound 0.3162 µM): 0.796 | relative viability ([16]; first compound 0.01 µM): 0.875 | relative viability ([16]; first compound 0.03162 µM): 0.87 | relative viability ([16]; first compound 0.3162 µM): 0.881 | relative viability ([17]; first compound 0.01 µM): 0.462 | relative viability ([17]; first compound 0.03162 µM): 0.724 | relative viability ([17]; first compound 0.3162 µM): 1.01 | relative viability ([18]; first compound 0.01 µM): 0.722 | relative viability ([18]; first compound 0.03162 µM): 0.751 | relative viability ([18]; first compound 0.3162 µM): 0.799 | relative viability ([19]; first compound 0.01 µM): 0.983 | relative viability ([19]; first compound 0.03162 µM): 1.21 | relative viability ([19]; first compound 0.3162 µM): 1.03 | relative viability ([20]; first compound 0.01 µM): 0.595 | relative viability ([20]; first compound 0.03162 µM): 0.515 | relative viability ([20]; first compound 0.3162 µM): 0.904 | relative viability ([22]; first compound 0.03162 µM): 0.375 | relative viability ([22]; first compound 0.3162 µM): 0.432
